Patent US8748415B2 (priority 2011, dated 2014)

System: recombinant NL4-3 virus (Renilla luciferase in nef, Gag P373S)
Test: HIV cell culture assay (luciferase activity in MT-2 cells infected with NLRluc recombinant virus)
Type: cell-based
Details: NL43, MT-2 cells infected 4-5 days with NLRluc recombinant virus
Method: HIV cell culture assay—MT-2 cells and 293T cells were obtained from the NIH AIDS Research and Reference Reagent Program. MT-2 cells were propagated in RPMI 1640 media supplemented with 10% heat inactivated fetal bovine serum, […]. The 293T cells were propagated in DMEM media supplemented with 10% heat inactivated fetal bovine serum (FBS), 100 units/ml penicillin G and 100 μg/ml streptomycin. The proviral DNA clone of NL4-3 was obtained from the NIH AIDS Research and Reference Reagent Program. A recombinant NL4-3 virus, in which a section of the nef gene from NL4-3 was replaced with the Renilla luciferase gene, was used as a reference virus. In addition, residue Gag P373 was converted to P373S. Briefly, the recombinant virus was prepared by transfection of the altered proviral clone of NL4-3. Transfections were performed in 293T cells using LipofectAMINE PLUS from Invitrogen (Carlsbad, Calif.), according to manufacturer's instruction. The virus was titered in MT-2 cells using luciferase enzyme activity as a marker. Luciferase was quantitated using the Dual Luciferase kit from Promega (Madison, Wis.), with modifications to the manufacturer's protocol. The diluted Passive Lysis solution was pre-mixed with the re-suspended Luciferase Assay Reagent and the re-suspended Stop & Glo Substrate (2:1:1 ratio). Fifty (50) μL of the mixture was added to each aspirated well on assay plates and luciferase activity was measured immediately on a Wallac TriLux (Perkin-Elmer). Antiviral activities of inhibitors toward the recombinant virus were quantified by measuring luciferase activity in cells infected for 4-5 days with NLRluc recombinants in the presence serial dilutions of the inhibitor. Table 1 is the key for the data in Table 2.

Row | Structure (SMILES) | EC50 (class symbol) [nM] | EC50 (numeric value) [nM]
1 | C=C(C)[C@@H]1CC[C@]2(CNCC(=O)O)CC[C@]3(C)[C@H](CC[C@@H]4[C@@]5(C)CC=C(c6ccc(C(=O)O)cc6)C(C)(C)[C@@H]5CC[C@]43C)[C@@H]12 [Example 31, 4-((1R,3aS,5aR,5bR,7aR,11aS,11bR,13aR,13bR)-3a-((carboxymethylamino)methyl)-5a,5b,8,8,11a-pentamethyl-1-(prop-1-en-2-yl)-2,3,3a,4,5,5a,5b,6,7,7a,8,11,11a,11b,12,13,13a,13b-octadecahydro-1H-cyclopenta[a]chrysen-9-yl)benzoic acid] | < 100 | 
2 | C=C(C)[C@@H]1CC[C@]2(CN(C)CCN3CCS(=O)(=O)CC3)CC[C@]3(C)[C@H](CC[C@@H]4[C@@]5(C)CC=C(c6ccc(C(=O)O)cc6)C(C)(C)[C@@H]5CC[C@]43C)[C@@H]12 [Example 33] | < 100 | 
3 | C=C(C)[C@@H]1CC[C@]2(CNCCN3CCCC3=O)CC[C@]3(C)[C@H](CC[C@@H]4[C@@]5(C)CC=C(c6ccc(C(=O)O)cc6)C(C)(C)[C@@H]5CC[C@]43C)[C@@H]12 [Example 34, 4-((1R,3aS,5aR,5bR,7aR,11aS,11bR,13aR,13bR)-5a,5b,8,8,11a-pentamethyl-3a-((2-(2-oxopyrrolidin-1-yl)ethylamino)methyl)-1-(prop-1-en-2-yl)-2,3,3a,4,5,5a,5b,6,7,7a,8,11,11a,11b,12,13,13a,13b-octadecahydro-1H-cyclopenta[a]chrysen-9-yl)benzoic acid] | < 100 | 
4 | C=C(C)[C@@H]1CC[C@]2(CNCc3ccc(S(N)(=O)=O)cc3)CC[C@]3(C)[C@H](CC[C@@H]4[C@@]5(C)CC=C(c6ccc(C(=O)O)cc6)C(C)(C)[C@@H]5CC[C@]43C)[C@@H]12 [Example 35] | < 100 | 
5 | C=C(C)[C@@H]1CC[C@]2(CNCCc3ccc(S(N)(=O)=O)cc3)CC[C@]3(C)[C@H](CC[C@@H]4[C@@]5(C)CC=C(c6ccc(C(=O)O)cc6)C(C)(C)[C@@H]5CC[C@]43C)[C@@H]12 [Example 36, 4-((1R,3aS,5aR,5bR,7aR,11aS,11bR,13aR,13bR)-5a,5b,8,8,11a-pentamethyl-1-(prop-1-en-2-yl)-3a-((4-sulfamylphenethylamino)methyl)-2,3,3a,4,5,5a,5b,6,7,7a,8,11,11a,11b,12,13,13a,13b-octadecahydro-1H-cyclopenta[a]chrysen-9-yl)benzoic acid] | < 100 | 
6 | CC(C)[C@@H]1CC[C@]2(CNCCCN3CCS(=O)(=O)CC3)CC[C@]3(C)[C@H](CC[C@@H]4[C@@]5(C)CC=C(c6ccc(C(=O)O)cc6)C(C)(C)[C@@H]5CC[C@]43C)[C@@H]12 [Example 37, 4-((1R,3aS,5aR,5bR,7aR,11aS,11bR,13aR,13bR)-5a,5b,8,8,11a-pentamethyl-1-(prop-1-en-2-yl)-3a-((3-(1-dioxo-thiomorpholino)propylamino)methyl)-2,3,3a,4,5,5a,5b,6,7,7a,8,11,11a,11b,12,13,13a,13b-octadecahydro-1H-cyclopenta[a]chrysen-9-yl)benzoic acid] | < 100 | 
7 | C=C(C)[C@@H]1CC[C@]2(CNCCCC(=O)OC)CC[C@]3(C)[C@H](CC[C@@H]4[C@@]5(C)CC=C(c6ccc(C(=O)O)cc6)C(C)(C)[C@@H]5CC[C@]43C)[C@@H]12 [Example 38, 4-((1R,3aS,5aR,5bR,7aR,11aS,11bR,13aR,13bR)-3a-((4-methoxy-4-oxobutylamino)methyl)-5a,5b,8,8,11a-pentamethyl-1-(prop-1-en-2-yl)-2,3,3a,4,5,5a,5b,6,7,7a,8,11,11a,11b,12,13,13a,13b-octadecahydro-1H-cyclopenta[a]chrysen-9-yl)benzoic acid] | < 100 | 
8 | C=C(C)[C@@H]1CC[C@]2(CNCC(=O)N(C)C)CC[C@]3(C)[C@H](CC[C@@H]4[C@@]5(C)CC=C(c6ccc(C(=O)O)cc6)C(C)(C)[C@@H]5CC[C@]43C)[C@@H]12 [Example 39, 4-((1R,3aS,5aR,5bR,7aR,11aS,11bR,13aR,13bR)-3a-((2-(dimethylamino)-2-oxoethylamino)methyl)-5a,5b,8,8,11a-pentamethyl-1-(prop-1-en-2-yl)-2,3,3a,4,5,5a,5b,6,7,7a,8,11,11a,11b,12,13,13a,13b-octadecahydro-1H-cyclopenta[a]chrysen-9-yl)benzoic acid] | < 100 | 
9 | C=C(C)[C@@H]1CC[C@]2(CNCCCN3CCCS3(=O)=O)CC[C@]3(C)[C@H](CC[C@@H]4[C@@]5(C)CC=C(c6ccc(C(=O)O)cc6)C(C)(C)[C@@H]5CC[C@]43C)[C@@H]12 [Example 40, 4-((1R,3aS,5aR,5bR,7aR,11aS,11bR,13aR,13bR)-3a-(((3-(1,1-dioxido-2-isothiazolidinyl)propyl)amino)methyl)-1-isopropenyl-5a,5b,8,8,11a-pentamethyl-2,3,3a,4,5,5a,5b,6,7,7a,8,11,11a,11b,12,13,13a,13b-octadecahydro-1H-cyclopenta[a]chrysen-9-yl)benzoic acid] | < 100 | 
10 | C=C(C)[C@@H]1CC[C@]2(CNCCS(C)(=O)=O)CC[C@]3(C)[C@H](CC[C@@H]4[C@@]5(C)CC=C(c6ccc(C(=O)O)cc6)C(C)(C)[C@@H]5CC[C@]43C)[C@@H]12 [Example 41, 4-((1R,3aS,5aR,5bR,7aR,11aS,11bR,13aR,13bR)-5a,5b,8,8,11a-pentamethyl-3a-((2-(methylsulfonyl)ethylamino)methyl)-1-(prop-1-en-2-yl)-2,3,3a,4,5,5a,5b,6,7,7a,8,11,11a,11b,12,13,13a,13b-octadecahydro-1H-cyclopenta[a]chrysen-9-yl)benzoic acid] | < 100 | 
11 | C=C(C)[C@@H]1CC[C@]2(CNCC(OCC)OCC)CC[C@]3(C)[C@H](CC[C@@H]4[C@@]5(C)CC=C(c6ccc(C(=O)O)cc6)C(C)(C)[C@@H]5CC[C@]43C)[C@@H]12 [Example 42, 4-((1R,3aS,5aR,5bR,7aR,11aS,11bR,13aR,13bR)-3a-((2,2-diethoxyethylamino)methyl)-5a,5b,8,8,11a-pentamethyl-1-(prop-1-en-2-yl)-2,3,3a,4,5,5a,5b,6,7,7a,8,11,11a,11b,12,13,13a,13b-octadecahydro-1H-cyclopenta[a]chrysen-9-yl)benzoic acid] | < 100 | 
12 | C=C(C)[C@@H]1CC[C@]2(CNCCS(=O)(=O)N3CCNCC3)CC[C@]3(C)[C@H](CC[C@@H]4[C@@]5(C)CC=C(c6ccc(C(=O)O)cc6)C(C)(C)[C@@H]5CC[C@]43C)[C@@H]12 [Example 43, 4-((1R,3aS,5aR,5bR,7aR,11aS,11bR,13aR,13bR)-5a,5b,8,8,11a-pentamethyl-3a-((2-(piperazin-1-ylsulfonyl)ethylamino)methyl)-1-(prop-1-en-2-yl)-2,3,3a,4,5,5a,5b,6,7,7a,8,11,11a,11b,12,13,13a,13b-octadecahydro-1H-cyclopenta[a]chrysen-9-yl)benzoic acid] | < 100 | 
13 | C=C(C)[C@@H]1CC[C@]2(CN(C)CCS(=O)(=O)N3CCN(C)CC3)CC[C@]3(C)[C@H](CC[C@@H]4[C@@]5(C)CC=C(c6ccc(C(=O)O)cc6)C(C)(C)[C@@H]5CC[C@]43C)[C@@H]12 [Example 44, 4-((1R,3aS,5aR,5bR,7aR,11aS,11bR,13aR,13bR)-5a,5b,8,8,11a-pentamethyl-3a-((methyl(2-(4-methylpiperazin-1-ylsulfonyl)ethyl)amino)methyl)-1-(prop-1-en-2-yl)-2,3,3a,4,5,5a,5b,6,7,7a,8,11,11a,11b,12,13,13a,13b-octadecahydro-1H-cyclopenta[a]chrysen-9-yl)benzoic acid] |  | 20
14 | C=C(C)[C@@H]1CC[C@]2(CNCCS(N)(=O)=O)CC[C@]3(C)[C@H](CC[C@@H]4[C@@]5(C)CC=C(c6ccc(C(=O)O)cc6)C(C)(C)[C@@H]5CC[C@]43C)[C@@H]12 [Example 45] | < 100 | 
15 | C=C(C)[C@@H]1CC[C@]2(CNCCc3ccc(C(=O)OC)cc3)CC[C@]3(C)[C@H](CC[C@@H]4[C@@]5(C)CC=C(c6ccc(C(=O)O)cc6)C(C)(C)[C@@H]5CC[C@]43C)[C@@H]12 [Example 46, 4-((1R,3aS,5aR,5bR,7aR,11aS,11bR,13aR,13bR)-3a-((4-(methoxycarbonyl)phenethylamino)methyl)-5a,5b,8,8,11a-pentamethyl-1-(prop-1-en-2-yl)-2,3,3a,4,5,5a,5b,6,7,7a,8,11,11a,11b,12,13,13a,13b-octadecahydro-1H-cyclopenta[a]chrysen-9-yl)benzoic acid] | < 100 | 
16 | C=C(C)[C@@H]1CC[C@]2(CNCCc3ccc(C(=O)O)cc3)CC[C@]3(C)[C@H](CC[C@@H]4[C@@]5(C)CC=C(c6ccc(C(=O)O)cc6)C(C)(C)[C@@H]5CC[C@]43C)[C@@H]12 [Example 47, 4-((1R,3aS,5aR,5bR,7aR,11aS,11bR,13aR,13bR)-3a-((4-carboxyphenethylamino)methyl)-5a,5b,8,8,11a-pentamethyl-1-(prop-1-en-2-yl)-2,3,3a,4,5,5a,5b,6,7,7a,8,11,11a,11b,12,13,13a,13b-octadecahydro-1H-cyclopenta[a]chrysen-9-yl)benzoic acid] | < 100 | 
